From ChEMBL document CHEMBL5029155, “Design, Synthesis, and Biological Evaluation of Stable Colchicine-Binding Site Tubulin Inhibitors 6-Aryl-2-benzoyl-pyridines as Potential Anticancer Agents” (J Med Chem, 2021)
Values after ≈ are worked out from the molar mass of the structure shown. Active and inactive are the calls of the source. The calls are words filed in the database; no cut-off is given here.

Columns and labels:
[1] = Cytotoxicity against paclitaxel resistant human MDA-MB-231/TxR cells measured after 72 hrs […]; assay type: functional, cell-based
[2] = test system: RPMI-7951; assay: Antiproliferative activity against human RPMI-7951 cells assessed as cell growth inhibition incubated for 72 hrs by MTS assay; assay type: functional, cell-based; details: RPMI-7951, 72 h
[3] = test system: M14; assay: Antiproliferative activity against human M14 cells assessed as cell growth inhibition incubated for 72 hrs by MTS assay; assay type: functional, cell-based; details: M14, 72 h
[4] = Apparent volume of distribution during terminal phase in NSG mouse at 10 mg/kg, ip; assay type: ADME, organism-based; details: in vivo, read-out: Vz/F
[5] = Antitumor activity against human A375/TxR cells xenografted in SCID mouse assessed as reduction in tumor volume at 20 mg/kg, ip administered 3 times/week for 18 days; assay type: functional; design: scale not given: the % may be the effect or the level left; details: time 18 day
[6] = Metabolic stability in mouse liver microsomes assessed as intrinsic clearance in presence of NADPH regenerating system by UPLC-MS analysis; assay type: ADME, Microsome; details: read-out: CLH
[7] = Cytotoxicity against paclitaxel resistant human A-375/TxR cells measured after 72 hrs […]; assay type: functional, cell-based; details: A375/TxR
[8] = Metabolic stability in human liver microsomes assessed as half life in presence of NADPH regenerating system by UPLC-MS analysis; assay type: ADME, Microsome; details: microsomes
[9] = test system: M14; assay: Cytotoxicity against paclitaxel resistant human M14 cells measured after 72 hrs […]; assay type: functional, cell-based; details: M14, 72 h
[10] = Antitumor activity against human A375/TxR cells xenografted in SCID mouse assessed as tumor growth inhibition at 10 mg/kg, ip administered 3 times/week for 18 days; assay type: functional; design: scale not given: the % may be the effect or the level left; details: time 18 day
[11] = test system: Salmonella typhimurium; assay: Mutagenicity in Salmonella typhimurium TA98 by Ames test; assay type: toxicity, organism-based; details: salmonella enterica subsp. enterica serovar typhimurium
[12] = test system: MDA-MB-453; assay: Antiproliferative activity against human MDA-MB-453 cells assessed as cell growth inhibition incubated for 72 hrs by MTS assay; assay type: functional, cell-based; details: MDA-MB-453, 72 h
[13] = Induction of cell cycle arrest in human A375/TxR cells assessed as accumulation at G2/M phase at 10 nM measured for 24 hrs by PI staining based flow cytometry analysis
[14] = Antimetastatic activity against human A375/TxR cells xenografted in SCID mouse assessed as metastatic in liver at 10 mg/kg, ip; assay type: functional
[15] = Systemic toxicity in human A375/TxR cells xenografted in SCID mouse tumor model assessed as pathological change in liver at 10 to 20 mg/kg, ip by H and E staining based analysis; assay type: organism-based; details: in vivo, dose 10-20 mg/kg
[16] = Metabolic stability in mouse liver microsomes assessed as half life in presence of NADPH regenerating system by UPLC-MS analysis; assay type: ADME, Microsome; details: microsomes
[17] = test system: A375/TxR; assay: Antitumor activity against human A375/TxR cells xenografted in SCID mouse assessed as tumor necrosis at 10 to 20 mg/kg, ip by H and E staining based analysis; assay type: functional, organism-based; details: dose 10-20 mg/kg
[18] = test system: MDA-MB-231; assay: Antiproliferative activity against human MDA-MB-231 cells assessed as cell growth inhibition incubated for 72 hrs by MTS assay; assay type: functional, cell-based; details: MDA-MB-231, 72 h
[19] = Aqueous solubility of compound in pH 7.4 PBS buffer; assay type: physicochemical
[20] = species on record: Sus scrofa; assay: Inhibition of porcine brain tubulin polymerization assessed as inhibition of microtubule polymerization at 10 uM measured for 1 hrs by microplate reader method
[21] = molecular target: T1, CYP2C8 (Homo sapiens, UniProt P10632); assay: Inhibition of CYP2C8 in human liver microsomes using amodiaquine as substrate at 10 uM; assay type: ADME; details: probe amodiaquine
T1 sequence (P10632 whole entry): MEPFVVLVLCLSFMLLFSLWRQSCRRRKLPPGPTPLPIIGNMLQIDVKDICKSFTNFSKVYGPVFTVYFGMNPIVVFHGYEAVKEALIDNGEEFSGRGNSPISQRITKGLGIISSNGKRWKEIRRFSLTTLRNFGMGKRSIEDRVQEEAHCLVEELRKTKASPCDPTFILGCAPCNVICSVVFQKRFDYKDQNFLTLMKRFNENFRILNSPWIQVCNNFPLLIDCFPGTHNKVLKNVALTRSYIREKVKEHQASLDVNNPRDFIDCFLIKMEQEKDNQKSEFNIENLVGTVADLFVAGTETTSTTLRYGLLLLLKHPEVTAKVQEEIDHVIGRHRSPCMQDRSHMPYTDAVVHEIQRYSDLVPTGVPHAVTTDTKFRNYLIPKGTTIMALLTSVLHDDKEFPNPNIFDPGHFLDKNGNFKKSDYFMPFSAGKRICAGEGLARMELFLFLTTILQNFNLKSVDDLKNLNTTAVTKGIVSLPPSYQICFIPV

[22] = Antitumor activity against human A375/TxR cells xenografted in SCID mouse assessed as reduction in tumor volume at 10 mg/kg, ip administered 3 times/week for 18 days; assay type: functional; design: scale not given: the % may be the effect or the level left; details: time 18 day
[23] = Half life in NSG mouse at 10 mg/kg, ip; assay type: ADME, organism-based; details: in vivo
[24] = Tmax in NSG mouse at 10 mg/kg, ip; assay type: ADME, organism-based; details: in vivo

Vd/F [4]: 12.3 L/kg
CLint scaled [6]: 4.6 mL/min/kg
t1/2 [8]: 0.49 h
IC50 [12]: 1.4 nM
t1/2 [16]: > 4 h
IC50 [18]: 2.2 nM
solubility [19]: 0.1 µM (≈ 0.0397 µg/mL)
inhibition [20]: Active
inhibition at 10 µM [21]: 92.5%
half-life [23]: 4.39 h
Tmax [24]: 0.17 h
Structure (SMILES): COc1cc(C(=O)c2nc(-c3ccc(C)c(O)c3)ccc2F)cc(OC)c1OC
IC50 [1]: 2.1 nM
IC50 [2]: 2.4 nM
IC50 [3]: 1.9 nM
Activity [5]: 72.9%
IC50 [7]: 5.3 nM
IC50 [9]: 4.9 nM
Activity [10]: 44.4%
Activity [11]: Non-Toxic
Activity [13]: 62%
Activity [14]: 33%
Activity [15]: Non-Toxic
Activity [17]: Active
Activity [22]: 57.6%
